Patent US20080319065A1, “Systemic and Intrathecal Effects of a Novel Series of Phospholipase A2 Inhibitors on Hyperalgesia and Spinal Pge2 Release” (The Regents of the University of California, priority 2005, published 2008)

How the values were obtained:
[1] = molecular target: T1, Group IVA cPLA2 (GIVA PLA2) (Homo sapiens, UniProt P47712); assay: In vitro Group IVA cPLA2 mixed micelle assay; type: biochemical
T1 sequence (P47712 1-749): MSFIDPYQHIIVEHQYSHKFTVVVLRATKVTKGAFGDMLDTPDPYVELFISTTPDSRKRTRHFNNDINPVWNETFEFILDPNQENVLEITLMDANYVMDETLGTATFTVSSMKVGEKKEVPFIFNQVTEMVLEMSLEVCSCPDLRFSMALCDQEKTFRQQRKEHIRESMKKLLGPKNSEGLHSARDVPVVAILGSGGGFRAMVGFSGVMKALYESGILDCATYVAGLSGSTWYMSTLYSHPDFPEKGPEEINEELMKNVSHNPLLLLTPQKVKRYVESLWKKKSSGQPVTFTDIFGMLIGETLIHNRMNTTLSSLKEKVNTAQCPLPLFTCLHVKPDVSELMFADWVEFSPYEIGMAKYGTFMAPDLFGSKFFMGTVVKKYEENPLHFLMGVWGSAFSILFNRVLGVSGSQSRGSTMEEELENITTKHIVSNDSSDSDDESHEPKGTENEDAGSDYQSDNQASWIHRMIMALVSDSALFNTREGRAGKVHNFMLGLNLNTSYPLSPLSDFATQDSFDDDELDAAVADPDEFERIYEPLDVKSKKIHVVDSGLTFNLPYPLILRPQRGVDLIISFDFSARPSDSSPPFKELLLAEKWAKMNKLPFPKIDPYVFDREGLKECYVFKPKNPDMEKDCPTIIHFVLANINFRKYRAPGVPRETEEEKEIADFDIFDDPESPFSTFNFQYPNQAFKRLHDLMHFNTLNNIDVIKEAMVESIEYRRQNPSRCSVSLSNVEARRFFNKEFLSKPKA

[2] = system: intrathecal SP evoked thermal hyperalgesia; assay: Intrathecal substance P-induced thermal hyperalgesia; type: in vivo, rat; conditions: 3 mg/kg IP, 30 min before IT SP
Description: Male Holtzman Sprague-Dawley rats (300-350 g; Harlan Industries) were individually housed and maintained on a 12-hr light/dark cycle with free access to food and water. For spinal drug injections, lumbar catheters were implanted in rats under isoflurane anesthesia according to a modification of the procedure described by Yaksh (Yaksh and Rudy, supra, 1976). A polyethylene catheter (PE-5; Spectranetics, 0.014 in OD) was inserted into the intrathecal space and advanced to the rostral edge of the lumbar enlargement through an incision in the atlanto-occipital membrane. Five days after implantation rats were entered into the study. […] A timer was actuated with the light source, and latency was defined as the time required for the paw to show a brisk withdrawal as detected by photodiode motion sensors that stop the timer and terminate the stimulus. Paw withdrawal latencies (PWL) were assessed prior to any treatment (control) and at intervals after treatment. Left (injured) and right (uninjured) paw withdrawal latencies were assessed and plotted versus time. In addition, difference latency scores (uninjured-injured) were calculated and the average withdrawal latency over the post-injection observation intervals are calculated for comparison between treatment groups. […] The mean PWL of the left and right paws was assessed at each time point. […]

With CCC(=O)C(=O)NCCCC(=O)OC [AX010] the “inhibition of GIVA PLA2 (cPLA2), in words” value [1] was “does not significantly inhibit GIVA PLA2”, the “Group IVA XI(50), class” value ([1]; at 0.091 mole fraction) was “N.D. (25% inhibition or less at 0.091 mole fraction)” and the “Inhibition of GIVA PLA2” value ([1]; at highest dose) was “ND (negligible inhibition (0-25%) at highest dose)”.
In the case of CCCCCCCCCCCCCCC(=O)C(=O)NCCCC(=O)OCC [AX048, Ethyl 4-[(2-oxohexadecanoyl)amino]butanoate], the “Group IVA XI(50) (mole fraction)” value ([1]; Table 1b) was 0.022 ± 0.009 mole fraction, the melting point was 63 to 64 °C and the “prevention of intrathecal SP-evoked thermal hyperalgesia” value [2] was “completely prevented the spinally-evoked thermal hyperalgesia”.
